For test [1] the following is noted: Changelian et al., 2003; cited from earlier work.
A further test addresses T1, JAK2 (Homo sapiens, UniProt O60674).
T1 construct: endogenous in cells; host or cells: Mixed Molt4 / Ramos cell lysate (1:2)
Briefly: kinobeads assay (competition with affinity matrix in mixed Molt4/Ramos cell lysate, dot blot detection), JAK2. It is filed as binding. To be noted: activity level. On the procedure:
(§1) The compounds of the present invention as described in the previous examples were tested in a kinobeads assay as described for ZAP-70 (WO-A 2007/137867). Briefly, test compounds (at various concentrations) and the affinity matrix with the immobilized aminopyrido-pyrimidine ligand 24 were added to cell lysate aliquots and allowed to bind to the proteins in the lysate sample. After the incubation time the beads with captured proteins were separated from the lysate. Bound proteins were then eluted and the presence of, JAK2 and JAK3 was detected and quantified using specific antibodies in a dot blot procedure and the Odyssey infrared detection system. Dose response curves for individual kinases were generated and IC50 values calculated. Kinobeads assays for ZAP-70 (WO-A 2007/137867) and for kinase selectivity profiling (WO-A 2006/134056) have been previously described.
(§2) 5× DP buffer: 250 mM Tris-HCl pH 7.4, 25% Glycerol, 7.5 mM MgCl2, 750 mM NaCl, 5 mM Na3VO4; filter the 5× DP buffer through a 0.22 μm filter and store in aliquots at −80° C. The 5× DP buffer is diluted with H2O to 1× DP buffer containing 1 mM DTT and 25 mM NaF.
(§3) Stock solutions of test compounds were prepared in DMSO. In a 96 well plate 30 μl solution of diluted test compounds at 5 mM in DMSO were prepared. Starting with this solution a 1:3 dilution series (9 steps) was prepared. For control experiments (no test compound) a buffer containing 2% DMSO was used.
(§4) Molt4 cells (ATCC catalogue number CRL-1582) and Ramos cells (ATCC catalogue number CRL-1596) were grown in 1 litre Spinner flasks (Integra Biosciences, #182101) in suspension in RPMI 1640 medium (Invitrogen, #21875-034) supplemented with 10% Fetal Bovine Serum (Invitrogen) at a density between 0.15×10^6 and 1.2×10^6 cells/ml. Cells were harvested by centrifugation, washed once with 1× PBS buffer (Invitrogen, #14190-094) and cell pellets were frozen in liquid nitrogen and subsequently stored at −80° C. Cells were homogenized in a Potter S homogenizer in lysis buffer: 50 mM Tris-HCl, 0.8% NP40, 5% glycerol, 150 mM NaCl, 1.5 mM MgCl2, 25 mM NaF, 1 mM sodium vanadate, 1 mM DTT, pH 7.5. One complete EDTA-free tablet (protease inhibitor cocktail, Roche Diagnostics, 1873580) per 25 ml buffer was added. The material was dounced 10 times using a mechanized POTTER S, transferred to 50 ml falcon tubes, incubated for 30 minutes on ice and spun down for 10 min at 20,000 g at 4° C. (10,000 rpm in Sorvall SLA600, precooled). The supernatant was transferred to an ultracentrifuge (UZ)-polycarbonate tube (Beckmann, 355654) and spun for 1 hour at 100.000 g at 4° C. (33.500 rpm in Ti50.2, precooled). The supernatant was transferred again to a fresh 50 ml falcon tube, the protein concentration was determined by a Bradford assay (BioRad) and samples containing 50 mg of protein per aliquot were prepared. The samples were immediately used for experiments or frozen in liquid nitrogen and stored frozen at −80° C.
(§5) Cell lysate (approximately 50 mg protein per plate) was thawed in a water bath at room temperature and then kept on ice. To the thawed cell lysate 1× DP 0.8% NP40 buffer containing protease inhibitors (1 tablet for 25 ml buffer; EDTA-free protease inhibitor cocktail; Roche Diagnostics 1873580) was added in order to reach a final protein concentration of 5 mg/ml total protein. The diluted cell lysate was stored on ice. Mixed Molt4/Ramos lysate was prepared by combining one volume of Molt4 lysate and two volumes of Ramos lysate (ratio 1:2).
(§6) To a 96 well filter plate (Multiscreen HTS, BV Filter Plates, Millipore #MSBVN1250) were added per well: 100 μl affinity matrix (3% beads slurry), 3 μl of compound solution, and 50 μl of diluted lysate. Plates were sealed and incubated for three hours in a cold room on a plate shaker (Heidolph tiramax 1000) at 750 rpm. Afterwards the plate was washed twice with 230 μl washing buffer (1× DP 0.4% NP40). […]

A further test deals with T2, JAK3 (Homo sapiens, UniProt P52333).
T2 construct: endogenous in cells; host or cells: Mixed Molt4 / Ramos cell lysate (1:2)
T2 sequence (P52333 1-1124): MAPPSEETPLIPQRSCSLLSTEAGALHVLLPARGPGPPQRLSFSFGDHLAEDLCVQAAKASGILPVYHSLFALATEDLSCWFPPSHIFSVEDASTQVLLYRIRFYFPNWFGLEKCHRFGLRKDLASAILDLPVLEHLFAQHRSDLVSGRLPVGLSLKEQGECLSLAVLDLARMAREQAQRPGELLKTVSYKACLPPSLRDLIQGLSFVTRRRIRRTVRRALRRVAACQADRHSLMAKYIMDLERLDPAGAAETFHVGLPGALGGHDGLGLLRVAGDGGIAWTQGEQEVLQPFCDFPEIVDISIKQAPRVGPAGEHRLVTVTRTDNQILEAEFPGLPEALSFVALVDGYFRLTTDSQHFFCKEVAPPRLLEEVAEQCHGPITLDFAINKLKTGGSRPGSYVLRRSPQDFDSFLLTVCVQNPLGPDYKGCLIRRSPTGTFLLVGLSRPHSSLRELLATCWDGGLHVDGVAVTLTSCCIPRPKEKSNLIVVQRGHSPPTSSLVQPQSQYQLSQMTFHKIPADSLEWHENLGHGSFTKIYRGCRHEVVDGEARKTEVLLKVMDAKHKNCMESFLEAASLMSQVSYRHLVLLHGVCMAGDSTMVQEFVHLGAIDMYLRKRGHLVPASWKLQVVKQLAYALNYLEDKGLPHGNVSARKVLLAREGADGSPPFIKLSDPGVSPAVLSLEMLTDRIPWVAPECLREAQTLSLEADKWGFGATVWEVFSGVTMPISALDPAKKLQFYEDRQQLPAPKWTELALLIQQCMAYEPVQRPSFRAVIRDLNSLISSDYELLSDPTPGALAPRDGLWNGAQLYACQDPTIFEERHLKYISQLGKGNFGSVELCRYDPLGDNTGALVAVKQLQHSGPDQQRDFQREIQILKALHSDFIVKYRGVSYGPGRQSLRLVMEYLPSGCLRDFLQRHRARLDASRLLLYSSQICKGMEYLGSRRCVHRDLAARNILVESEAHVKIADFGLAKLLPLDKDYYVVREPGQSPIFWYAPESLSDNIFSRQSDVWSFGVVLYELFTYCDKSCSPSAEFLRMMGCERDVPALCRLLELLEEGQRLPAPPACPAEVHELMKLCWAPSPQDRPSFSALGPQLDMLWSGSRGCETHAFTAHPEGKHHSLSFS
Briefly: kinobeads assay (competition with affinity matrix in mixed Molt4/Ramos cell lysate, dot blot detection), JAK3. To be noted: activity level. Format: binding. On the procedure: as §1, §2, §3, §4, §5, §6

For test [2] the following is noted: NOD mouse model of type I diabetes; cited from earlier work.
The conditions of test [3]: reviewed in Cetkovic-Cvrlje and Ucken, 2004; cited from earlier work.

This is an account of results in patent US20120040955A1 (priority 2009, published 2012).

By IC50 is commonly meant the concentration that gives 50% inhibition. The low end stands for greater potency, the high end for weaker potency.

T1 sequence (O60674 whole entry): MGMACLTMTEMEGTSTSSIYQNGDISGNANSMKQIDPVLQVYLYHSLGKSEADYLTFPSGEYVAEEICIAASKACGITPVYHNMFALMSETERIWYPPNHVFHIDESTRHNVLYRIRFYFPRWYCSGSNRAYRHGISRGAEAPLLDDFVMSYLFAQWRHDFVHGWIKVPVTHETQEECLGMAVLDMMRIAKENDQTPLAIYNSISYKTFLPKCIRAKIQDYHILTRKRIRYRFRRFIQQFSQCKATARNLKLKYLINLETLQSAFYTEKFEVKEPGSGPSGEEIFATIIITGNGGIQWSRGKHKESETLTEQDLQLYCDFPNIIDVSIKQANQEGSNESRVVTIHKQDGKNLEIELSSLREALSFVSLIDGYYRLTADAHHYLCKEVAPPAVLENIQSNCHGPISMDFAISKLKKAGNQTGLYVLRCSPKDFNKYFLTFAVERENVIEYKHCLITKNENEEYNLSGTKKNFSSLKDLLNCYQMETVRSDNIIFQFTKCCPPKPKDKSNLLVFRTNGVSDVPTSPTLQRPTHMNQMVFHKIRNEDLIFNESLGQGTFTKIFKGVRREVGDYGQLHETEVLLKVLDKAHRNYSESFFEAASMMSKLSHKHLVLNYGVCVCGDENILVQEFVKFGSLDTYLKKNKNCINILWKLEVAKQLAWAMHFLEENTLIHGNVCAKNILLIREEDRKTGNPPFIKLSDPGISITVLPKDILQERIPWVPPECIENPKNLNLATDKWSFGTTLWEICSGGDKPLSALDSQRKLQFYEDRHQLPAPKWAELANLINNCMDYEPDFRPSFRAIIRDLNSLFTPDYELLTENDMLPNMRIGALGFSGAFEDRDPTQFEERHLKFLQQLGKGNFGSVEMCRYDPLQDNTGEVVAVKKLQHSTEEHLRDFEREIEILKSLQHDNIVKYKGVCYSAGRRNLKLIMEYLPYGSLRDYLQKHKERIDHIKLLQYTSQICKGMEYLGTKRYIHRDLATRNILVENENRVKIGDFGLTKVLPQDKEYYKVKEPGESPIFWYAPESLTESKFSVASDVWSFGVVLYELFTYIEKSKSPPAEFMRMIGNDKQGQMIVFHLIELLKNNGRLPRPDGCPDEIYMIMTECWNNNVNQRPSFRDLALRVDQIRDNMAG

With `C[C@@H]1CCN(C(=O)CC#N)C[C@@H]1N(C)c1ncnc2[nH]ccc12` [CP-690,550], the “efficacy in an animal model of organ transplantation” value in test [1] is listed as “show efficacy”.
Regarding `CCNC(=O)c1ccc(F)c(Nc2ncc(Cl)c(Nc3ccccc3NS(=O)(=O)CC)n2)c1` [Example 39, 3-(5-chloro-4-(2-(ethylsulfonamido)phenylamino)pyrimidin-2-ylamino)-N-ethyl-4-fluorobenzamide], the 50% inhibitory concentration (IC50) is greater than 10000 nM at JAK2 and less than 100 nM on JAK3.
For `CS(=O)(=O)Nc1ccccc1Nc1nc(Nc2cc(C(=O)NCCO)ccc2F)ncc1Cl` [Example 22, 3-(5-chloro-4-(2-(methylsulfonamido)phenylamino)pyrimidin-2-ylamino)-4-fluoro-N-(2-hydroxyethyl)benzamide] the same measures were 1000 to 10000 nM and less than 100 nM.
Regarding `COc1cc2ncnc(Nc3ccc(O)cc3)c2cc1OC` [JANEX-1], in test [2], the “spontaneous autoimmune diabetes development” value is given as “prevent spontaneous autoimmune diabetes development”. In addition, the “severity of GVHD” value in test [3] is listed as “attenuate the severity of GVHD”.
`CS(=O)(=O)Nc1ccccc1Nc1nc(Nc2cc(-n3cnnn3)ccc2F)ncc1Cl` [Example 7, N-(2-(5-chloro-2-(2-fluoro-5-(1H-tetrazol-1-yl)phenylamino)pyrimidin-4-ylamino)phenyl)methanesulfonamide]: the concentration for half-maximal inhibition (IC50) on JAK2 is 100 to 1000 nM; on JAK3, less than 100 nM.
For `COc1ccc(Nc2nc(Nc3cc(-n4cnnn4)ccc3F)ncc2Cl)c(NS(C)(=O)=O)c1` [Example 10, N-(2-(5-chloro-2-(2-fluoro-5-(1H-tetrazol-1-yl)phenylamino)pyrimidin-4-ylamino)-5-methoxyphenyl)methanesulfonamide] the same measures were 100 to 1000 nM and less than 100 nM.
For `CNC(=O)c1ccc(F)c(Nc2ncc(Cl)c(Nc3ccccc3NS(C)(=O)=O)n2)c1` [Example 21, 3-(5-chloro-4-(2-(methylsulfonamido)phenylamino)pyrimidin-2-ylamino)-4-fluoro-N-methybenzamide] the same measures were 1000 to 10000 nM and less than 100 nM.
For the molecule `CS(=O)(=O)Nc1ccccc1Nc1nc(Nc2cc(C(=O)N3CCOCC3)ccc2F)ncc1Cl` [Example 54, N-(2-(5-chloro-2-(2-fluoro-5-(morpholine-4-carbonyl)phenylamino)pyrimidin-4-ylamino)phenyl)methanesulfonamide], the IC50 at JAK2 was greater than 10000 nM; on JAK3, less than 100 nM.
Regarding `CN(c1ccccc1Nc1nc(Nc2cc(-n3cnnn3)ccc2F)ncc1F)S(C)(=O)=O` [Example 13, N-(2-(5-fluoro-2-(2-fluoro-5-(1H-tetrazol-1-yl)phenylamino)pyrimidin-4-ylamino)phenyl)-N-methylmethanesulfonamide], the values for the half-maximal inhibitory concentration (IC50) on JAK2 and on JAK3 were 100 to 1000 nM and less than 100 nM, respectively.
